Assay [1] has as its target T1, D. melanogaster VAChT (Drosophila melanogaster, UniProt O17444).
T1 construct: full-length gene cloned by PCR from adult fly cDNA library, Gateway vector, expressed in PC12 cells (rat)
T1 sequence (O17444 1-578): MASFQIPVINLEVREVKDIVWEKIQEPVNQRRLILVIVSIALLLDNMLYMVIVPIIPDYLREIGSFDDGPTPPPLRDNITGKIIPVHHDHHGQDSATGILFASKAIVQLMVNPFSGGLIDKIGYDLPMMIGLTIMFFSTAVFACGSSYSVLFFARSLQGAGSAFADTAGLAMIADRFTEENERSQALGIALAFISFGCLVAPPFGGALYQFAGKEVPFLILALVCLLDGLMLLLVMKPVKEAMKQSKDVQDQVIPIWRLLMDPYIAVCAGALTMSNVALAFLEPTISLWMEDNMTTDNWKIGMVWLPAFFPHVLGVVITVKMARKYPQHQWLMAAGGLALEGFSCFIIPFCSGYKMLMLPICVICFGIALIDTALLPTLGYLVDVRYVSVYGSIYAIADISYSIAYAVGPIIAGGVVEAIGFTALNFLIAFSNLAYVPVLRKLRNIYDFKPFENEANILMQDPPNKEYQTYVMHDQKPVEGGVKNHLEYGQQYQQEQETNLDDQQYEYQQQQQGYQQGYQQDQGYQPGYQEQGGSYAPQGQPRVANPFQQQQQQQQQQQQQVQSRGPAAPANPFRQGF
Put plainly: inhibition of vesicular acetylcholine uptake, PNS from PC12 cells expressing VAChT. In kind it is biochemical. The note with it: substrate acetylcholine.

Assay [2] concerns the target T1, D. melanogaster VAChT. Put plainly: [3H]-SYN876 saturation binding to membranes of PC12 cells expressing VAChT.
In assay [3] the target is T1, D. melanogaster VAChT. Put plainly: displacement of [3H]-SYN876 from membranes of PC12 cells expressing VAChT. In kind it is binding. The note with it: competition with [3H]-SYN876.

As to `O=C(c1ccnc(Cl)c1)N1CC2(CCN(C/C=C/c3ccc(Cl)cc3)CC2)c2cc(F)ccc21` [SYN876], the IC50 entry in assay [1] was “Inhibition of the acetylcholine transport activity of PNS from the cells”. Moreover, the affinity in assay [2], expressed as Kd, was 0.04 nM.
Turning to `Nc1cccc2c1CC(N1CCC(c3ccccc3)CC1)C(O)C2` (stereo not shown) [aminobenzovesamicol], the IC50 entry in assay [3] was “displaced by the known VAChT inhibitors vesamicol and aminobenzovesamicol (table S3)”.
The same measure, in the same setting: as for `OC1CCCCC1N1CCC(c2ccccc2)CC1` (stereo not shown) [vesamicol], the entry is “displaced by the known VAChT inhibitors vesamicol and aminobenzovesamicol (table S3)”.

The values are drawn from paper PMC3341389, “Spiroindolines Identify the Vesicular Acetylcholine Transporter as a Novel Target for Insecticide Action” (PLoS ONE, 2012).
